Measured values as given in ChEMBL document CHEMBL5352429, “Designed symmetrical β-hairpin peptides for treating multidrug-resistant salmonella typhimurium infections” (Eur J Med Chem, 2022).
≈ marks a conversion by molar mass, not a printed value. Calls of active or inactive are those of the source. The rule behind the calls is not given here. Peptide text beside a SMILES is read from it.

Columns and labels:
[1] = system: Staphylococcus epidermidis; assay: Antibacterial activity against methicillin-resistant Staphylococcus epidermidis ATCC 12228 incubated overnight by standard microtiter dilution method; format: functional
Salmonella paratyphi = assay: Antibacterial activity against Salmonella paratyphi A CICC 21501 incubated overnight by standard microtiter dilution method; format: functional, Salmonella enterica subsp. enterica serovar Paratyphi A; details: Salmonella enterica
[2] = Antibacterial activity against Salmonella enterica subsp. enterica serovar Choleraesuis CICC 21493 incubated overnight by standard microtiter dilution method; format: functional
Salmonella enteritidis = assay: Antibacterial activity against Salmonella enteritidis CICC 21527 incubated overnight by standard microtiter dilution method; format: functional, Salmonella enterica subsp. enterica serovar Enteritidis; details: Salmonella enterica
[3] = Antibacterial activity against Salmonella wandsworth CICC 21504 incubated overnight by standard microtiter dilution method; format: functional, Salmonella enterica subsp. enterica serovar Wandsworth; details: Salmonella enterica
Salmonella typhimurium [4] = assay: Antibacterial activity against Salmonella typhimurium CICC 21483 incubated overnight by standard microtiter dilution method; format: functional, Salmonella enterica subsp. enterica serovar Typhimurium; details: Salmonella enterica
[5] = Antibacterial activity against Salmonella blockley CICC 21489 incubated overnight by standard microtiter dilution method; format: functional, Salmonella enterica subsp. enterica serovar Blockley; details: Salmonella enterica
[6] = Antibacterial activity against Salmonella dublin CICC 21497 incubated overnight by standard microtiter dilution method; format: functional, Salmonella enterica subsp. enterica serovar Dublin; details: Salmonella enterica
Salmonella typhimurium [7] = assay: Antibacterial activity against Salmonella typhimurium DT104 ATCC 700408 incubated overnight by standard microtiter dilution method; format: functional, Salmonella enterica subsp. enterica serovar Typhimurium; details: Salmonella enterica
Candida albicans = assay: Antifungal activity against Candida albicans ATCC 10231 incubated overnight by standard microtiter dilution method; format: functional
Salmonella typhimurium [8] = assay: Antibacterial activity against Salmonella typhimurium DT104 in the presence of NaCl by MH broth based assay; format: functional, Salmonella enterica subsp. enterica serovar Typhimurium; details: Salmonella enterica
Salmonella typhimurium [9] = assay: Antibacterial activity against Salmonella typhimurium DT104 in the presence of FeCl3 by MH broth based assay; format: functional, Salmonella enterica subsp. enterica serovar Typhimurium; details: Salmonella enterica
Salmonella typhimurium [10] = assay: Antibacterial activity against Salmonella typhimurium DT104 in the presence 50% inactivated mouse serum by MH broth based assay; format: functional, Salmonella enterica subsp. enterica serovar Typhimurium; details: Salmonella enterica
Salmonella typhimurium [11] = assay: Antibacterial activity against Salmonella typhimurium DT104 infected in mouse RAW264.7 cells assessed as log reduction in bacterial colony count at 1 times of MIC measured after 90 mins by MH agar based serial dilution method; format: functional, Salmonella enterica subsp. enterica serovar Typhimurium; details: 1.5 h
Salmonella typhimurium [12] = assay: Antibacterial activity against Salmonella typhimurium DT104 infected in mouse RAW264.7 cells assessed as reduction in bacterial cells at 1 times of MIC measured for 180 mins by MH agar based serial dilution method; format: functional, organism-based; details: Salmonella enterica subsp. enterica serovar Typhimurium
Lipopolysaccharide (LPS) = assay: Displacement of BODIPY-TR-cadaverine from Salmonella typhimurium LPS assessed as increase in fluorescence intensity by fluorescence spectrophotometric analysis; details: Salmonella enterica subsp. enterica serovar Typhimurium; dose 0.25-8 µg/ml
RAW264.7 [13] = assay: Anti-inflammatory activity in mouse RAW264.7 cells assessed as inhibition of LPS-induced iNOS mRNA expression at 15 ug/ml preincubated with compound for 30 mins followed by LPS stimulation and measured after 4 hrs by RT-PCR analysis; format: functional, cell-based; details: dose 15.0 µg/ml, time 4.5 hrs
RAW264.7 [14] = assay: Anti-inflammatory activity in mouse RAW264.7 cells assessed as inhibition of LPS-induced IL-1beta mRNA expression at 15 ug/ml preincubated with compound for 30 mins followed by LPS stimulation and measured after 4 hrs by RT-PCR analysis; format: functional, cell-based; details: dose 15.0 µg/ml, time 4.5 hrs
RAW264.7 [15] = assay: Anti-inflammatory activity in mouse RAW264.7 cells assessed as inhibition of LPS-induced IL-8 mRNA expression at 15 ug/ml preincubated with compound for 30 mins followed by LPS stimulation and measured after 4 hrs by RT-PCR analysis; format: functional, cell-based; details: dose 15.0 µg/ml, time 4.5 hrs
RAW264.7 [16] = assay: Anti-inflammatory activity in mouse RAW264.7 cells assessed as inhibition of LPS-induced IL-10 mRNA expression at 15 ug/ml preincubated with compound for 30 mins followed by LPS stimulation and measured after 4 hrs by RT-PCR analysis; format: functional, cell-based; details: dose 15.0 µg/ml, time 4.5 hrs
RAW264.7 [17] = assay: Inhibition of LPS-stimulated IL-8 production in mouse RAW264.7 cells at 1 to 128 ug/ml incubated for 24 hrs by ELISA analysis; format: functional, cell-based; details: dose 1-128 µg/ml
Salmonella typhimurium [18] = assay: Antibacterial activity against Salmonella typhimurium DT104 assessed as reduction in TNF-alpha mRNA level in ileum at 20 mg/kg, ip administered for 3 days and measured on day 7 by RT-PCR analysis; format: functional, organism-based; details: Salmonella enterica subsp. enterica serovar Typhimurium, time 7.0 day
Salmonella typhimurium [19] = assay: Antibacterial activity against Salmonella typhimurium DT104 assessed as reduction in IL-8 mRNA level in ileum at 20 mg/kg, ip administered for 3 days and measured on day 7 by RT-PCR analysis; format: functional, organism-based; details: Salmonella enterica subsp. enterica serovar Typhimurium, time 7.0 day
Salmonella typhimurium [20] = assay: Antibacterial activity against Salmonella typhimurium DT104 assessed as reduction in IL-1beta mRNA level in ileum at 20 mg/kg, ip administered for 3 days and measured on day 7 by RT-PCR analysis; format: functional, organism-based; details: Salmonella enterica subsp. enterica serovar Typhimurium, time 7.0 day
Salmonella typhimurium [21] = assay: Antibacterial activity against Salmonella typhimurium DT104 assessed as reduction in IL-6 mRNA level in ileum at 20 mg/kg, ip administered for 3 days and measured on day 7 by RT-PCR analysis; format: functional, organism-based; details: Salmonella enterica subsp. enterica serovar Typhimurium, time 7.0 day
Salmonella typhimurium [22] = assay: Antibacterial activity against Salmonella typhimurium DT104 assessed as reduction in IL-4 mRNA level in ileum at 20 mg/kg, ip administered for 3 days and measured on day 7 by RT-PCR analysis; format: functional, organism-based; details: Salmonella enterica subsp. enterica serovar Typhimurium, time 7.0 day
Salmonella typhimurium [23] = assay: Antibacterial activity against Salmonella typhimurium DT104 assessed as reduction in TNF-alpha production in serum at 20 mg/kg, ip administered for 3 days and measured on day 7; format: functional, organism-based; details: Salmonella enterica subsp. enterica serovar Typhimurium, time 7.0 day
Salmonella typhimurium [24] = assay: Antibacterial activity against Salmonella typhimurium DT104 assessed as reduction in IL-1beta production in serum at 20 mg/kg, ip administered for 3 days and measured on day 7; format: functional, organism-based; details: Salmonella enterica subsp. enterica serovar Typhimurium, time 7.0 day
Salmonella typhimurium [25] = assay: Antibacterial activity against Salmonella typhimurium DT104 infected in ICR mouse model assessed as increase in ZO-1 expression in villous at 20 mg/kg, ip administered for 3 days and measured on day 7 […] by immunohistochemistry analysis; format: functional, organism-based; details: Salmonella enterica subsp. enterica serovar Typhimurium, time 7.0 day
Salmonella typhimurium [26] = assay: Antibacterial activity against Salmonella typhimurium DT104 infected in ICR mouse model assessed as alleviation of villi shortening at 20 mg/kg, ip administered for 3 days and measured on day 7 by H&E staining based analysis; format: functional, organism-based; details: Salmonella enterica subsp. enterica serovar Typhimurium, time 7.0 day
Salmonella typhimurium [27] = assay: Antibacterial activity against Salmonella typhimurium DT104 infected in ICR mouse model assessed as alleviation of intestinal mucosal damage at 20 mg/kg, ip administered for 3 days and measured on day 7 by H&E staining based analysis; format: functional, organism-based; details: Salmonella enterica subsp. enterica serovar Typhimurium, time 7.0 day
Cell membrane [28] = assay: Induction of cytoplasmic membrane depolarization in Salmonella typhimurium DT104 assessed as increase in fluorescence intensity at 2 times of MIC incubated for 15 mins by DiSC3-5 dye based fluorescence method; format: subcellular; details: Salmonella enterica subsp. enterica serovar Typhimurium
Cell membrane [29] = assay: Induction of membrane damage in Salmonella typhimurium DT104 assessed as membrane stunting at 1 times of MIC incubated for 60 mins by atomic force microscopic analysis; format: subcellular; details: Salmonella enterica subsp. enterica serovar Typhimurium
Cell membrane [30] = assay: Induction of membrane damage in Salmonella typhimurium DT104 assessed as membrane devastation at 1 times of MIC incubated for 60 mins by atomic force microscopic analysis; format: subcellular; details: Salmonella enterica subsp. enterica serovar Typhimurium
Cell membrane [31] = assay: Induction of membrane damage in Salmonella typhimurium DT104 assessed as substantial damage to bacterial envelope at 1 times of MIC incubated for 60 mins by transmission electron microscopic analysis; format: subcellular; details: Salmonella enterica subsp. enterica serovar Typhimurium
Cell membrane [32] = assay: Induction of membrane damage in Salmonella typhimurium DT104 assessed as cytoplasmic outflow at 1 times of MIC incubated for 15 mins by confocal laser scanning microscopic analysis; format: subcellular; details: Salmonella enterica subsp. enterica serovar Typhimurium

**Q.** Which MIC [1] does the source give for C[C@@H](O)[C@H](NC(=O)[C@H](CS)NC(=O)[C@H](CCCCN)NC(=O)[C@H](Cc1c[nH]c2ccccc12)NC(=O)[C@H](CCCCN)NC(=O)[C@@H](N)Cc1c[nH]c2ccccc12)C(=O)N[C@@H](CCCCN)C(=O)N[C@@H](CO)C(=O)NCC(=O)N[C@@H](CS)C(=O)N[C@@H](CCCCN)C(=O)N[C@@H](Cc1c[nH]c2ccccc12)C(=O)N[C@@H](CCCCN)C(=O)N[C@@H](Cc1c[nH]c2ccccc12)C(N)=O (H-WKWKCTKSGCKWKW-NH2) here?
**A.** 4 µg/mL (≈ 2.16 µM)

**Q.** And the MIC (Salmonella paratyphi)?
**A.** 8 µg/mL (≈ 4.31 µM)

**Q.** What about the MIC [2] of the same compound?
**A.** 8 µg/mL (≈ 4.31 µM)

**Q.** And the MIC (Salmonella enteritidis)?
**A.** 8 µg/mL (≈ 4.31 µM)

**Q.** What about the MIC [3] of the same compound?
**A.** 8 µg/mL (≈ 4.31 µM)

**Q.** What about the MIC (Salmonella typhimurium [4]) of the same compound?
**A.** 4 µg/mL (≈ 2.16 µM)

**Q.** What about the MIC [5] of the same compound?
**A.** 8 µg/mL (≈ 4.31 µM)

**Q.** What about the MIC [6] of the same compound?
**A.** 8 µg/mL (≈ 4.31 µM)

**Q.** What about the MIC (Salmonella typhimurium [7]) of the same compound?
**A.** 4 µg/mL (≈ 2.16 µM)

**Q.** What about the MIC (Candida albicans) of the same compound?
**A.** 2 µg/mL (≈ 1.08 µM)

**Q.** And the MIC (Salmonella typhimurium [8])?
**A.** 4 µg/mL

**Q.** What about the MIC (Salmonella typhimurium [9]) of the same compound?
**A.** 8 µg/mL

**Q.** What about the MIC (Salmonella typhimurium [10]) of the same compound?
**A.** 32 µg/mL (≈ 17.3 µM)

**Q.** And the “log(activity)” value (Salmonella typhimurium [11])?
**A.** 3

**Q.** What about the Activity (Salmonella typhimurium [12]) of the same compound?
**A.** Active

**Q.** And the Activity (Lipopolysaccharide (LPS))?
**A.** Dose-Dependent Effect

**Q.** What about the inhibition (RAW264.7 [13]) of the same compound?
**A.** Active

**Q.** And the inhibition (RAW264.7 [14])?
**A.** Active

**Q.** And the inhibition (RAW264.7 [15])?
**A.** Active

**Q.** What about the inhibition (RAW264.7 [16]) of the same compound?
**A.** Active

**Q.** And the inhibition (RAW264.7 [17])?
**A.** Active

**Q.** What about the Activity (Salmonella typhimurium [18]) of the same compound?
**A.** Active

**Q.** What about the Activity (Salmonella typhimurium [19]) of the same compound?
**A.** Active

**Q.** And the Activity (Salmonella typhimurium [20])?
**A.** Active

**Q.** What about the Activity (Salmonella typhimurium [21]) of the same compound?
**A.** Active

**Q.** What about the Activity (Salmonella typhimurium [22]) of the same compound?
**A.** Active

**Q.** And the Activity (Salmonella typhimurium [23])?
**A.** Active

**Q.** And the Activity (Salmonella typhimurium [24])?
**A.** Active

**Q.** What about the Activity (Salmonella typhimurium [25]) of the same compound?
**A.** Active

**Q.** And the Activity (Salmonella typhimurium [26])?
**A.** Active

**Q.** And the Activity (Salmonella typhimurium [27])?
**A.** Active

**Q.** And the Activity (Cell membrane [28])?
**A.** Active

**Q.** What about the Activity (Cell membrane [29]) of the same compound?
**A.** Active

**Q.** And the Activity (Cell membrane [30])?
**A.** Active

**Q.** What about the Activity (Cell membrane [31]) of the same compound?
**A.** Active

**Q.** And the Activity (Cell membrane [32])?
**A.** Active
